Positions of bridges follow the written chain, without caps; N, C: chain ends. Residues, ends and D or L forms follow the SMILES beside them. No end group written: not given here. *: point of attachment. Biotin = O=C1N[C@H]2[C@H](CS[C@H]2CCCCC(=O)*)N1

Assay [1] has as its target T1, human insulin receptor (HIR) (Homo sapiens, UniProt P06213).
T1 construct: made in house
Nature of the assay: 125I-insulin competition binding assay on solubilised purified receptor. The settings on record: read-out: HIR affinity.

In assay [2] the test system is adipocytes. Description: 3H-glucose uptake into adipocytes (fat cell assay, FFC). It is filed as cell-based, Mouse. Set-up: key to FFC: 0 is no effect; + is agonist; - is antagonist.
In assay [3] the target is human IGF-1 receptor (HIGF-1R) (Homo sapiens, UniProt P08069). Description: 125I-IGF-1 competition binding assay on solubilised purified receptor. The settings on record: for Ratio: Kd HIGF1R / Kd HIR.
Chain of human IGF-1 receptor (HIGF-1R) (P08069 31-736 limits assumed): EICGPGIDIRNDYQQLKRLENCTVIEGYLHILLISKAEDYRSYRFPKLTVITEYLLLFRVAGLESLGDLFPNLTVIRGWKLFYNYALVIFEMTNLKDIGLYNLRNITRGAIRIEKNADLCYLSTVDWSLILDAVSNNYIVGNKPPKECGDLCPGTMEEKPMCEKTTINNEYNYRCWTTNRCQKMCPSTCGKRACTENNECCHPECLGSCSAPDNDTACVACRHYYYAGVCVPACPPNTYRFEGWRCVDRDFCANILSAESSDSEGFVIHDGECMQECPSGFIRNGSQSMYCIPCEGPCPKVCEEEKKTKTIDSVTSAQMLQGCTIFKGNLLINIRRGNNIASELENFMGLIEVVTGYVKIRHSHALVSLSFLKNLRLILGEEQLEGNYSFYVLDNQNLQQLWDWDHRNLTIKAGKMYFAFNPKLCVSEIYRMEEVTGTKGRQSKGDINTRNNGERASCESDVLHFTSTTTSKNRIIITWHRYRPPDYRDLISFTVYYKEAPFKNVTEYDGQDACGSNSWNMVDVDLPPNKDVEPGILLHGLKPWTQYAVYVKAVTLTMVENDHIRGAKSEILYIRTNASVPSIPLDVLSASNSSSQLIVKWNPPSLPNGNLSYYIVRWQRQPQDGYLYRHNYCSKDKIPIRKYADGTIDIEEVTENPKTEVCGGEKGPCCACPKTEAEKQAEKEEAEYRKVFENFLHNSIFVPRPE
Chain of human IGF-1 receptor (HIGF-1R) (P08069 741-1367 limits assumed): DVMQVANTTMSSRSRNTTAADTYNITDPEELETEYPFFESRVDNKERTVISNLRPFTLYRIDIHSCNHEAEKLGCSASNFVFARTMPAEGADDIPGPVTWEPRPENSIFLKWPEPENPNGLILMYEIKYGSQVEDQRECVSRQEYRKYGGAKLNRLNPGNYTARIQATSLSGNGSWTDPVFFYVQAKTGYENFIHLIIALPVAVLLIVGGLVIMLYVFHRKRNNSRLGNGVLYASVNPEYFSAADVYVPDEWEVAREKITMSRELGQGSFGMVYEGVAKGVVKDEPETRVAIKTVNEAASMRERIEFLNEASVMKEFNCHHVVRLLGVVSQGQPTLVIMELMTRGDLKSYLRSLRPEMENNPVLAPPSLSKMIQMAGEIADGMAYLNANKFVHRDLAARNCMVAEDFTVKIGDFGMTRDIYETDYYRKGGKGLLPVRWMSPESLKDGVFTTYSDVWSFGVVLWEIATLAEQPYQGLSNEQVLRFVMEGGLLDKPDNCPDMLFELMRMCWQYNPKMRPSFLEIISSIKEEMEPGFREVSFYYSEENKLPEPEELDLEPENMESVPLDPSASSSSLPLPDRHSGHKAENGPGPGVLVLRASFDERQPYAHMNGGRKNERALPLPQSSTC

T1 sequence (P06213 28-758 limits assumed): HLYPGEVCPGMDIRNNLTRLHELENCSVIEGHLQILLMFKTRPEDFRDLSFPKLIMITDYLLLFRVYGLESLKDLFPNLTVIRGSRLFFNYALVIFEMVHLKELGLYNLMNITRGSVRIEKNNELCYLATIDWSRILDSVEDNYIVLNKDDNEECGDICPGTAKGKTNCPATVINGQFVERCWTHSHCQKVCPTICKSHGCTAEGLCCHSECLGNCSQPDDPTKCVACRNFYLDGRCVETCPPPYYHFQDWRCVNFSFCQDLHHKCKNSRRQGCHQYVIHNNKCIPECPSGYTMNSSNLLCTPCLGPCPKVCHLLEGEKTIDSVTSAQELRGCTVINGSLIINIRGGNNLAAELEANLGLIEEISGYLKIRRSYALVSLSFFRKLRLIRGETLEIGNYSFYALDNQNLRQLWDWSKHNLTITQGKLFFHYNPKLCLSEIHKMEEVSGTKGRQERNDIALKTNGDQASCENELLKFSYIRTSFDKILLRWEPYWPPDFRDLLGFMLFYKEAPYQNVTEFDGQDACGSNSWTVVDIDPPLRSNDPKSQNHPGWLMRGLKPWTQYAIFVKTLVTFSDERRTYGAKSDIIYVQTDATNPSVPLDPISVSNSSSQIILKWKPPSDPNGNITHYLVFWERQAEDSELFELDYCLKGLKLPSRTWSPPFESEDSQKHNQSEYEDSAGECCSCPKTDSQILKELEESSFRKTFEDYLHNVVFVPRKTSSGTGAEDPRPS
T1 sequence (P06213 763-1382 limits assumed): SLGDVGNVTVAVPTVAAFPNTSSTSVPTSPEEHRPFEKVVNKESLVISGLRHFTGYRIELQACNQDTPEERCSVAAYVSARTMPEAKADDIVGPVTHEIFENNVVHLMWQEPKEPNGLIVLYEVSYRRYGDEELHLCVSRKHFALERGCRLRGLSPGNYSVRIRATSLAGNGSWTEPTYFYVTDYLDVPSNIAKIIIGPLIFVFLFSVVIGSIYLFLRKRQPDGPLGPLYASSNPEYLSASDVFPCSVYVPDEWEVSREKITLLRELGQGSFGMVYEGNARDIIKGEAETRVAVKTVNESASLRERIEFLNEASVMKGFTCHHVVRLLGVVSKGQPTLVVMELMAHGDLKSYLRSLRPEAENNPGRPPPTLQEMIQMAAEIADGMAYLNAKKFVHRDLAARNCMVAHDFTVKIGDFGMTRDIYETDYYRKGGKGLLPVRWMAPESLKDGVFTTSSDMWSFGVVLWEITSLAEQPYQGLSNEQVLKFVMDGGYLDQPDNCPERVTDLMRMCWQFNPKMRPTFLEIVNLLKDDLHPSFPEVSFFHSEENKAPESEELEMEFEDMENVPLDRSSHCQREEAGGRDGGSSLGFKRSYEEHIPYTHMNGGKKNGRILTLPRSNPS

For the compound FHENFYDAFVRQVSKK [Clone S222], the Kd in assay [1] is over 20 µM. For the same compound, the FFC in assay [2] is recorded as 0.
As to Ac-FYDWF-NH2 [Clone S184], in assay [1], the Kd is over 20 µM. The FFC in assay [2] is 0.
In the case of `CC(C)C[C@@H]1NC(=O)[C@H](CO)NC(=O)[C@H](C)NC(=O)CNC(=O)[C@H](Cc2c[nH]c3ccccc23)NC(=O)[C@H](Cc2ccccc2)NC(=O)[C@H](CC(C)C)NC(=O)[C@H](CCC(=O)O)NC(=O)[C@H](CCC(=O)O)NC(=O)[C@H](CC(C)C)NC(=O)[C@H](C(C)C)NC(=O)[C@@H](NC(=O)[C@H](CC(C)C)NC(=O)[C@H](Cc2c[nH]cn2)NC(=O)[C@@H](N)CCCCN)CSSC[C@@H](C(=O)N[C@@H](CO)C(=O)NCC(=O)N[C@@H](CCCCN)C(=O)N[C@@H](CCCCNC(=O)CCCC[C@@H]2SC[C@@H]3NC(=O)N[C@@H]32)C(=O)O)NC(=O)[C@H](Cc2ccc(O)cc2)NC(=O)CNC(=O)[C@H](Cc2ccccc2)NC1=O` [Clone D124A] (H-KHLCVLEELFWGASLFGYCSGKK(Biotin)-OH; disulfide 4-19 (inferred); N-terminus assumed), the Ratio in assay [3] was over 200.
In the case of `CC[C@H](C)[C@H](NC(=O)[C@@H](N)CCCCN)C(=O)NCC(=O)NCC(=O)N[C@@H](CCC(N)=O)C(=O)NCC(=O)N[C@@H](CCC(N)=O)C(=O)N[C@@H](Cc1c[nH]cn1)C(=O)N[C@@H](CCC(N)=O)C(=O)N[C@@H](CC(=O)O)C(=O)NCC(=O)N[C@@H](CC(N)=O)C(=O)N[C@@H](Cc1ccccc1)C(=O)N[C@@H](Cc1ccc(O)cc1)C(=O)N[C@@H](CC(=O)O)C(=O)N[C@@H](Cc1c[nH]c2ccccc12)C(=O)N[C@@H](Cc1ccccc1)C(=O)N[C@H](C(=O)N[C@@H](CCC(=O)O)C(=O)N[C@@H](C)C(=O)N[C@@H](CC(C)C)C(=O)N[C@@H](C)C(=O)N[C@@H](CCCCN)C(=O)N[C@@H](CCCCNC(=O)CCCC[C@@H]1SC[C@@H]2NC(=O)N[C@@H]21)C(N)=O)C(C)C` [Clone D101] (H-KIGGQGQHQDGNFYDWFVEALAKK(Biotin)-NH2), the Kd in assay [3] stood at 13 µM.
Take `CC(C)[C@H](NC(=O)[C@H](Cc1ccccc1)NC(=O)[C@H](Cc1c[nH]c2ccccc12)NC(=O)[C@H](CC(=O)O)NC(=O)[C@H](Cc1ccc(O)cc1)NC(=O)[C@H](Cc1ccccc1)NC(=O)[C@H](CC(N)=O)NC(=O)[C@H](CCC(=O)O)NC(=O)[C@H](Cc1c[nH]cn1)NC(=O)[C@@H](N)Cc1ccccc1)C(=O)N[C@@H](CCCNC(=N)N)C(=O)N[C@@H](CCC(N)=O)C(=O)N[C@H](C(=O)N[C@@H](CO)C(=O)N[C@@H](CCCCN)C(=O)N[C@@H](CCCCN)C(=O)O)C(C)C` [Clone D117A]: in assay [3], the Kd is 5.1 µM.
Consider DPFYQGLWEWLRESGEE-NH2 [Clone S289], for which the Kd in assay [1] was over 20 µM.
On to `CC[C@H](C)[C@H](NC(=O)[C@H](CCC(=O)O)NC(=O)[C@@H](N)CCCCN)C(=O)N[C@@H](CCC(=O)O)C(=O)N[C@@H](C)C(=O)N[C@@H](CCC(=O)O)C(=O)N[C@@H](Cc1c[nH]c2ccccc12)C(=O)NCC(=O)N[C@@H](CCCNC(=N)N)C(=O)N[C@H](C(=O)N[C@@H](CCCNC(=N)N)C(=O)N[C@H]1CSSC[C@@H](C(=O)N[C@H](C(=O)NCC(=O)NCC(=O)N[C@@H](CCCCN)C(=O)N[C@@H](CCCCNC(=O)CCCC[C@@H]2SC[C@@H]3NC(=O)N[C@@H]32)C(=O)O)C(C)C)NC(=O)[C@H](CCCNC(=N)N)NC(=O)CNC(=O)[C@H](Cc2ccc(O)cc2)NC(=O)[C@H](C(C)C)NC(=O)[C@H](CC(C)C)NC1=O)C(C)C` [Clone D122A] (H-KEIEAEWGRVRCLVYGRCVGGKK(Biotin)-OH; disulfide 12-18 (inferred); N-terminus assumed), for which the Ratio in assay [3] was over 20.
As to WGRSFYRYFETLLAQGI-NH2 [Clone S261], the Kd in assay [1] is over 20 µM.

Source of the values: patent EP1383793B1 (priority 2000, dated 2001).
